Results taken from patent US4593119A, “Method for treatment or prophylaxis of cardiac disorders” (American Hospital Supply Corporation, priority 1982, dated 1986).
Structures can show the parent of a compound that is named as a salt. Where two headings read alike, the source gives them in different places.

Key:
[1] = target: T1, β-adrenergic receptors, guinea pig tracheal strips (Cavia porcellus, UniProt Q8K4Z4); test: β-blocking activity in vitro, guinea pig tracheal strips (tension response to isoproterenol); format: cell-based; settings: for pA2 Trachea: pA2 = -log KB, vs isoproterenol, 60-minute incubation, tracheal tension; for Kb: read-out: pA2 Trachea (converted)
T1 construct: Spiral strips of guinea pig trachea; from tissue; host or cells: guinea pig trachea, spiral strips
T1 sequence (Q8K4Z4 whole entry): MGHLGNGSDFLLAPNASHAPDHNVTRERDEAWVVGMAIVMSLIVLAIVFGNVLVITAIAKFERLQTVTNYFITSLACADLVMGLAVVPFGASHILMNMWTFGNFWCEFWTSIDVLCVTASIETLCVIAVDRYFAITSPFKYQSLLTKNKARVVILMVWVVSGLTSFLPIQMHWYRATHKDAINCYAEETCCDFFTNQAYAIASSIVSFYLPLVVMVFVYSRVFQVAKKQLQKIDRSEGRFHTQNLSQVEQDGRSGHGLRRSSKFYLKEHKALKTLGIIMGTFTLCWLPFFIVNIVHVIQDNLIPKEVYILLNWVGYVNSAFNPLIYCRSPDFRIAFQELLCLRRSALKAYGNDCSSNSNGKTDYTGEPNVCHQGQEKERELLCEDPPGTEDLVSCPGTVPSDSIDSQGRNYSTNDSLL
Protocol: (§1) Each tissue was suspended between a fixed glass rod and a Statham Universal Transducer connected to a Beckman recorder. Atria were allowed to beat spontaneously under a loading tension of approximately 0.5 g. Changes in rate of response to isoproterenol, a standard β-receptor agonist, were measured in the absence and presence of test compounds. Spiral strips of guinea pig trachea were suspended under 5 g resting tension and incubated with phentolamine, tropolone, and cocaine. Active tension was generated by addition of carbachol (3.0×10^-7 M) and decreases in tension in response to isoproterenol were quantitated. Cumulative concentration response curves were produced with isoproterenol both before and after 60-minute incubation of test compounds with atria and trachea. Compounds with β-blocking activitiy shifted concentration response curves to the right. […] The degree of cardioselectivity was estimated from the ratio KB trachea/KB atria 10(pA2 Atria -pA^2 Trachea). A ratio greater than one indicates cardioselectivity. […]

[2] = tested on: heart rate response to isoproterenol (dog); test: beta-blockade in vivo in pentobarbital-anesthetized dogs, 3-hour infusion, inhibition of heart rate response to isoproterenol and recovery; settings: 80% recovery after 3-hour infusion
Protocol: (§2) The duration of beta-blockage was determined in vivo using pentobarbital-anesthetized dogs instrumented for measurement of heart rate using a Beckman cardiotachometer triggered electronically by a phasic aortic blood pressure signal. Both vagus nerves were severed in the cervical region and the animals were mechanically ventilated. Two experimental designs were used. The first employed a 40-minute infusion of test compound and the second used a 3-hour infusion of test compound. In the 40-minute model, isoproterenol was infused into a foreleg vein at the rate of […] to induce a beta-receptor mediated tachcardia. Various doses of test compound were then infused into a femoral vein over a period of 40 minutes. This infusion was then terminated and recovery from blockade was quantitated. […] This cumulative dose is expressed as mg/kg and is an indication of potency. The time period required for 80% recovery of heart rate for each dose of test drug was also measured to quantitate duration of action. […] Test compound were dissolved in 0.9% NaCl and infused at a rate of 0.05 ml/Mg/min or less. In the 3-hour infusion model, bolus doses of isoproterenol ([…]) were used to assess the degree of beta-blockade and recovery from beta-blockage after termination of the infusion. The doses were spaced at 10-minute intervals and were given before, during and following the infusion of test compounds. The infusion rate was adjusted so that the end of the 3-hour infusion period the degree of isoproterenol inhibition averaged about 50% of control.

[3] = tested on: β-adrenergic receptors, guinea pig right atria; test: β-blocking activity in vitro, guinea pig right atria (rate response to isoproterenol); format: cell-based
Protocol: as §1

[4] = tested on: beta-receptor mediated tachycardia (dog heart rate); test: beta-blockade in vivo in pentobarbital-anesthetized dogs, 40-minute infusion, inhibition of heart rate response to isoproterenol and recovery
Protocol: as §2

[5] = target: β-adrenergic receptors, guinea pig right atria (Cavia porcellus, UniProt H0W3H1); test: β-blocking activity in vitro, guinea pig right atria (rate response to isoproterenol); format: cell-based; settings: read-out: pA2 Atria (converted)
Sequence of β-adrenergic receptors, guinea pig right atria (Cavia porcellus, UniProt H0W3H1) (H0W3H1 1-470): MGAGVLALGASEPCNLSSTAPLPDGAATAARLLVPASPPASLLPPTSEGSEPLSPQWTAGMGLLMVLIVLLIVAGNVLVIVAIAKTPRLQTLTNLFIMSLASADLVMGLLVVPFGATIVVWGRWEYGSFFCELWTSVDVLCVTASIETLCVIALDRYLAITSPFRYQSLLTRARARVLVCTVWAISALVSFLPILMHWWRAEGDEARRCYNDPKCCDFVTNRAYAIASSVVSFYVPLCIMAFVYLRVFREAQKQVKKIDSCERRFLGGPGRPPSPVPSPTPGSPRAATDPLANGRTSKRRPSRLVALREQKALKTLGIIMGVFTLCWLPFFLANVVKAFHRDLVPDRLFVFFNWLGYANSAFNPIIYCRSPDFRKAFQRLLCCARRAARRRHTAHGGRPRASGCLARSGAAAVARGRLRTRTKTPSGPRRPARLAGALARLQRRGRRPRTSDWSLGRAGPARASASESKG
Protocol: as §1

[6] = disappearance in vitro in human whole blood; format: in vitro ADME; settings: 37° C., 50 μg test compound, read-out: T1/2 Human Blood
Protocol: (§3) The rate of disappearance of a compound is expressed as the half-life (T1/2), which is the time period in which one-half of the initial amount of compound tested disappears. […] At the designated time periods, the test mixtures were removed from the incubator and transferred to a 0° C. ice bath. Acetonitrile (2 mL) was immediately added, and the mixtures were mixed to stop enzymatic hydrolysis. Zero time samples were prepared by adding 2 mL of acetonitrile to denature the proteins prior to addition of the test compounds. […] The half-life of each test compound was determined graphically by plotting the decrease in concentration as a function of time.

[7] = disappearance in vitro in dog whole blood; format: in vitro ADME; settings: 37° C., 50 μg test compound, read-out: T1/2 Dog Blood
Protocol: as §3

[8] = disappearance in vitro in dog liver homogenate; format: in vitro ADME; settings: 33% (w/v) dog liver homogenate, 37° C., 50 μg test compound; read-out: T1/2 Dog Liver
Protocol: as §3

[9] = ratio KB trachea/KB atria, greater than one indicates cardioselectivity
[10] = Canis lupus familiaris, iv, 40 min; read-out: Potency mg/kg/40 min
[11] = time for 80% recovery of heart rate after 40-minute i.v. infusion, dogs; in min

Structure (SMILES) | half-life [6] [min] | half-life [7] [min] | half-life [8] [min] | pA2 Trachea [1] | 80% Recovery Time ([2]; in min) | Cardioselectivity [3, 9] | ED50 [4, 10] [mg/kg] | 80% Recovery Time [4, 11] | further results
COC(=O)CCc1ccc(OCC(O)CNC(C)(C)C)cc1 (stereo not shown) [V] |  |  |  | 5.9 | 15 ± 3 | 4 | 4.5 ± 1.5 | 7 ± 2 | 
CCCOC(=O)CCc1ccc(OCC(O)CNC(C)C)cc1.Cl (stereo not shown) [XII, n-Propyl 3-[4-[2-Hydroxy-3-(isopropylamino)propoxy]phenyl]propionate Hydrochloride] |  |  |  | 5.2 |  | 1.6 |  |  | 
CC(C)NCC(O)COc1cccc2ccccc12 (stereo not shown) [Propranolol, reference compound] |  |  |  |  |  |  |  |  | ED50 ([4]; Canis lupus familiaris, iv, 40 min, read-out: Potency mg/kg/40 min): 0.06 ± 0.01 mg/kg; 80% Recovery Time ([4]; iv, 40 min): 42 ± 9
C=CCOC(=O)c1ccccc1OCC(O)CNC(C)C (stereo not shown) [Example XVI] |  |  |  |  | 36 ± 5 | 1 |  |  | Kb [1]: 12.6 nM; Kb [5]: 12.6 nM
COC(=O)c1ccccc1OCC(O)CNCCc1ccc(OC)c(OC)c1.O=C(O)C(=O)O (stereo not shown) [Example XI, Methyl 2-[2-Hydroxy-3-(3,4-dimethoxyphenethylamino)propoxy]benzoate Oxalate] | 8 | 120 | 3 | 7.1 | 30 ± 4 | 16 |  |  | 
COC(=O)c1ccc(OCC(O)CNC(C)C)cc1.Cl (stereo not shown) [Example I, Methyl 4-[2-Hydroxy 3-(isopropylamino)propoxy]benzoate Hydrochloride] | > 60 | 60 | > 180 | 5.5 |  | 19 | 3.7 ± 1.3 | 34 ± 11 | 
C=CCOC(=O)c1ccc(OCC(O)CNC(C)C)cc1 (stereo not shown) [Example XIV, 3-Propenyl 4-[2-Hydroxy-3-(isopropylamino)propoxy]benzoate] |  |  |  |  |  | 4 |  |  | Kb [1]: 2000 nM; Kb [5]: 501 nM
C=CCOC(=O)c1cccc(OCC(O)CNC(C)C)c1 (stereo not shown) [Example XV] |  |  |  |  |  |  |  |  | Kb [1]: 63.1 nM; 80% Recovery Time [2]: > 60 min; Cardioselectivity [3]: 2; Kb [5]: 126 nM
COC(=O)Cc1ccc(OCC(O)CNC(C)C)cc1.Cl (stereo not shown) [III, Methyl 4-[2-Hydroxy-3-(isopropylamino)propoxy]phenylacetate hydrochloride] | 2 | 60 | 5 | 5.4 |  |  | 2.3 ± 0.6 | 20 ± 5 | 
COC(=O)c1ccc(OCC(O)CNC(C)(C)C)cc1 (stereo not shown) [VIII, Methyl 4-[2-Hydroxy-3-(t-butylamino)propoxy]benzoate] |  |  |  | 5.4 |  |  |  |  | Cardioselectivity [3]: 32
COC(=O)CCc1ccc(OCC(O)CNC(C)C)cc1.Cl (stereo not shown) [Example IV, Methyl 3-[4-[2-Hydroxy-3-(isopropylamino)propoxy]-phenyl]propionate Hydrochloride] | 44 | 41 | < 5 |  | 12 ± 3 | 30 | 1.35 ± 0.52 | 12 ± 2 | Kb [1]: 2510 nM
CCOC(=O)c1ccc(OCC(O)CNC(C)C)cc1.Cl (stereo not shown) [II, Ethyl 4-[2-Hydroxy-3-(isopropylamino)propoxy]benzoate Hydrochloride] | > 60 | 60 |  | 6.1 |  | 2.5 | 5.7 ± 1.6 | 56 ± 6 | 
CC(=O)Nc1ccc(OCC(O)CNC(C)C)cc1 (stereo not shown) [Practolol, reference compound] |  |  |  |  |  |  |  |  | 80% Recovery Time [2]: > 60 min; 80% Recovery Time ([4]; time for 80% recovery of heart rate after 40-minute i.v. infusion, dogs): 61 min

The next lines start with results.

half-life [6] [min] | half-life [7] [min] | half-life [8] [min] | Structure (SMILES) | pA2 Trachea [1] | 80% Recovery Time ([2]; in min) | Cardioselectivity [3, 9] | ED50 [4, 10] [mg/kg] | 80% Recovery Time [4, 11] | further results
7 | 17 | 5 | COC(=O)c1ccccc1OCC(O)CNC(C)(C)C (stereo not shown) [Example X, Methyl 2-[2-Hydroxy-3-(t-butylamino)propoxy]benzoate Hydrochloride Hemihydrate] |  | 22 ± 5 |  | 0.14 ± 0.04 | 12 ± 1 | 
7 | 38 | 19 | COC(=O)c1ccccc1OCC(O)CNC(C)C (stereo not shown) [Example IX, Methyl 2-[2-Hydroxy-3-(isopropylamino)propoxy]benzoate] | 7.9 | 15 ± 2 | 2 | 0.176 ± 0.02 | 15 ± 2 | Kb [5]: 6.31 nM
44 | 13 | 2 | COC(=O)CCc1ccc(OCC(O)CNCCc2ccc(OC)c(OC)c2)cc1 (stereo not shown) [VI] | 5.2 | 14 ± 3 |  |  |  | Cardioselectivity [3]: 20
11 | 120 | < 2.5 | COC(=O)CCc1ccccc1OCC(O)CNC(C)C (stereo not shown) [XIII] |  | 29 ± 6 |  |  |  | 
